# In US7056355B2, “Hair dye composition and dyeing method” (Kao Corporation, priority 2002, dated 2006):
# Experiment: pKa determination in DMF/water by titration with UV-visible spectra
# Format: physicochemical
# Details: DMF/water (1/1 by volume) solution, dye 2×10^−5 mol/l
# Description: The pKa value is determined in DMF/water (1/1-mixture, by volume) as follows:
# The dye is dissolved in a solution of a DMF/water (1/1; volume ratio) to a final concentration of 2×10^−5 mol/l. After the resulting solution is adjusted to pH 2, using 1.0 mol/l hydrochloric acid, the solution is titrated with an aqueous 1.0 mol/l sodium hydroxide solution. Recording the change of the visible ultra-violet absorption spectrum, the inflection point is determined by regression analysis.
row,pKa,Compound
1,4.2,N#CC1=NN(c2ccccc2)C(=O)C1/N=N/c1ccc(S(N)(=O)=O)cc1 [Dye D-6]
2,4.6,COc1ccc(/N=N/C2C(=O)N(c3ccccc3)N=C2C#N)cc1 [Dye D-7]
3,4.36,COc1ccc(/N=N/C2C(=O)N(c3ccc(S(N)(=O)=O)cc3)N=C2C#N)cc1 [Dye D-15]

# The next lines start with the compound.
row,Compound,pKa
1,N#CC(/N=N/c1ccc(S(N)(=O)=O)cc1)C(=O)c1ccccc1 [Dye D-14],5.82
2,Cc1nn2nc(C(C)(C)C)c(/N=N/c3cc(Cl)c(S(N)(=O)=O)cc3Cl)c2[nH]1 [Dye D-17],5.92
3,CS(=O)(=O)c1ccc(/N=N/c2ccc(O)c3ccccc23)c(C#N)c1 [Dye D-25],6.5
4,CC(=O)Nc1cc(/N=N/c2ccc(S(C)(=O)=O)cc2C#N)c2ccccc2c1O [Dye D-26],7.1

# Same assay, conditions: DMF/water (1/1 by volume), dye 2×10^−5 mol/l
row,pka,Compound
1,2.86,N#CC1=NN(c2ccccc2)C(=O)C1/N=N/c1cc(Cl)c(S(N)(=O)=O)cc1Cl [Dye D-18]
2,4.32,CS(=O)(=O)Nc1cccc2c(O)ccc(/N=N/c3ccc([N+](=O)[O-])cc3S(C)(=O)=O)c12 [Dye D-21]
3,6.34,NS(=O)(=O)c1cccc(S(=O)(=O)Nc2cccc3c(O)ccc(/N=N/c4ccc([N+](=O)[O-])cc4)c23)c1 [Dye D-22]
4,5.09,CCOC(=O)Nc1cc(/N=N/c2ccc(S(C)(=O)=O)cc2C#N)c2c(NS(C)(=O)=O)cccc2c1O [Dye D-24]
